Test results from patent US10131652B2, “Pyrimidinyloxy benzene derivatives as herbicides” (E. I. DU PONT DE NEMOURS AND COMPANY, priority 2014, dated 2018).

Experiments:
Format in all cases: in vivo
[1] = system: ducksalad (Heteranthera limosa); assay: Test C flooded paddy test plant response; settings: Flood, 250 g ai/ha; scale of 0 to 100 where 0 is no effect and 100 is complete control; 13 to 15 days
Outline: (§1)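 Readout is a visual 0–100 score (100 = complete control) versus controls at 13–15 days. Plants at 2-leaf stage, flooded to 3 cm, treated through paddy water.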

[2] = system: small-flower umbrella sedge (Cyperus difformis); assay: Test C flooded paddy test plant response; settings: Flood, 250 g ai/ha; scale of 0 to 100 where 0 is no effect and 100 is complete control; 13 to 15 days
Outline: as §1

rice (Oryza sativa) = assay: Test C flooded paddy test plant response; settings: Flood, 250 g ai/ha; scale of 0 to 100 where 0 is no effect and 100 is complete control; 13 to 15 days
Outline: as §1

[3] = system: barnyardgrass (Echinochloa crus-galli); assay: Test C flooded paddy test plant response; settings: Flood, 250 g ai/ha; scale of 0 to 100 where 0 is no effect and 100 is complete control; 13 to 15 days
Outline: as §1

[4] = system: yellow nutsedge (Cyperus esculentus); assay: Test D pre-/postemergence plant response; settings: Postemergence; for Nutsedge, Yellow plant response rating: 31 g ai/ha, scale 0 to 100 (0 no effect, 100 complete control); for Plant response rating, Nutsedge, Yellow: scale 0 to 100, 0 no effect, 100 complete control
Outline: (§2)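 Seeds were planted in a loam and sand blend and sprayed preemergence. In parallel, seedlings grown in peat moss/vermiculite medium were sprayed postemergence at 2 to 18 cm height. Both used a surfactant-containing non-phytotoxic solvent. Greenhouse ratings at 13 to 15 days used a 0–100 control scale.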

[5] = system: winter wheat (Triticum aestivum); assay: Test D pre-/postemergence plant response; settings: Postemergence; for Wheat plant response rating: 31 g ai/ha, scale 0 to 100 (0 no effect, 100 complete control); for Plant response rating, Wheat: scale 0 to 100, 0 no effect, 100 complete control
Outline: as §2

[6] = system: oilseed rape (Brassica napus); assay: Test D pre-/postemergence plant response; settings: Postemergence; for Oilseed Rape plant response rating: 31 g ai/ha, scale 0 to 100 (0 no effect, 100 complete control); for Plant response rating, Oilseed Rape: scale 0 to 100, 0 no effect, 100 complete control
Outline: as §2

[7] = system: large (Lg) crabgrass (Digitaria sanguinalis); assay: Test D pre-/postemergence plant response; settings: Postemergence; for Crabgrass, Large plant response rating: scale 0 to 100 (0 no effect, 100 complete control); for Plant response rating, Crabgrass, Large: scale 0 to 100, 0 no effect, 100 complete control
Outline: as §2

[8] = system: johnsongrass (Sorghum halepense); assay: Test D pre-/postemergence plant response; settings: Postemergence; for Johnsongrass plant response rating: 31 g ai/ha, scale 0 to 100 (0 no effect, 100 complete control); for Plant response rating, Johnsongrass: scale 0 to 100, 0 no effect, 100 complete control
Outline: as §2

[9] = system: velvetleaf (Abutilon theophrasti); assay: Test D pre-/postemergence plant response; settings: Postemergence; for Velvetleaf plant response rating: 31 g ai/ha, scale 0 to 100 (0 no effect, 100 complete control); for Plant response rating, Velvetleaf: scale 0 to 100, 0 no effect, 100 complete control
Outline: as §2

soybean (Glycine max) = assay: Test D pre-/postemergence plant response; settings: Postemergence; for Soybean plant response rating: 31 g ai/ha, scale 0 to 100 (0 no effect, 100 complete control); for Plant response rating, Soybean: scale 0 to 100, 0 no effect, 100 complete control
Outline: as §2

wild oat (Avena fatua) = assay: Test D postemergence plant response; settings: for Oat, Wild plant response rating: 31 g ai/ha, scale 0 to 100 (0 no effect, 100 complete control); for Plant response rating, Oat, Wild: scale 0 to 100, 0 no effect, 100 complete control
Outline: (§3)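 Visual scoring from 0 (no effect) to 100 (complete control), relative to controls, 13–15 days after treatment in the greenhouse. Compounds were applied postemergence at the 1- to 4-leaf stage (2–18 cm) to potted plants in peat-based medium.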

kochia (Kochia scoparia) = assay: Test D postemergence plant response; settings: for Kochia plant response rating: 31 g ai/ha, scale 0 to 100 (0 no effect, 100 complete control); for Plant response rating, Kochia: scale 0 to 100, 0 no effect, 100 complete control
Outline: as §3

[10] = system: chickweed (common chickweed, Stellaria media); assay: Test D postemergence plant response; settings: for Chickweed plant response rating: scale 0 to 100 (0 no effect, 100 complete control); for Plant response rating, Chickweed: scale 0 to 100, 0 no effect, 100 complete control
Outline: as §3

Structure (SMILES) | Ducksalad plant response rating [1] | Sedge, Umbrella plant response rating [2] | Rice plant response rating (rice (Oryza sativa)) | Barnyardgrass plant response rating [3] | Nutsedge, Yellow plant response rating [4] | Plant response rating, Nutsedge, Yellow ([4]; 62 g ai/ha) | Plant response rating, Nutsedge, Yellow ([4]; 125 g ai/ha) | Wheat plant response rating [5] | Plant response rating, Wheat ([5]; 62 g ai/ha) | Plant response rating, Wheat ([5]; 125 g ai/ha) | Oilseed Rape plant response rating [6] | Plant response rating, Oilseed Rape ([6]; 62 g ai/ha) | Crabgrass, Large plant response rating ([7]; 16 g ai/ha) | Crabgrass, Large plant response rating ([7]; 31 g ai/ha) | Plant response rating, Crabgrass, Large ([7]; 62 g ai/ha) | Plant response rating, Crabgrass, Large ([7]; 125 g ai/ha) | Johnsongrass plant response rating [8] | Plant response rating, Johnsongrass ([8]; 62 g ai/ha) | Plant response rating, Johnsongrass ([8]; 125 g ai/ha) | Velvetleaf plant response rating [9] | also measured
FC(F)(F)c1cc(-c2c(Cl)cccc2Oc2ncc(Cl)cn2)no1 [Compound 169] | 0 | 0 | 0 | 0 | 0 | 0 | 5 | 5 | 10 | 10 | 5 | 10 | 5 | 5 | 10 | 10 | 0 | 0 | 5 | 10 | Plant response rating, Oilseed Rape ([6]; 125 g ai/ha): 60; Plant response rating, Velvetleaf ([9]; 62 g ai/ha): 20; Plant response rating, Velvetleaf ([9]; 125 g ai/ha): 30; Soybean plant response rating (soybean (Glycine max)): 5; Plant response rating, Soybean (soybean (Glycine max); 62 g ai/ha): 15; Plant response rating, Soybean (soybean (Glycine max); 125 g ai/ha): 25; Oat, Wild plant response rating (wild oat (Avena fatua)): 5; Plant response rating, Oat, Wild (wild oat (Avena fatua); 62 g ai/ha): 5; Plant response rating, Oat, Wild (wild oat (Avena fatua); 125 g ai/ha): 10; Kochia plant response rating (kochia (Kochia scoparia)): 60; Plant response rating, Kochia (kochia (Kochia scoparia); 62 g ai/ha): 90; Plant response rating, Kochia (kochia (Kochia scoparia); 125 g ai/ha): 95; Chickweed plant response rating ([10]; 16 g ai/ha): 5; Chickweed plant response rating ([10]; 31 g ai/ha): 40; Plant response rating, Chickweed ([10]; 62 g ai/ha): 70; Plant response rating, Chickweed ([10]; 125 g ai/ha): 80
FC(F)(Br)c1cc(-c2ccccc2Oc2ncc(Cl)cn2)no1 [Compound 162] | 0 | 0 | 0 | 0 | 0 | 5 | 10 | 0 | 5 | 5 | 5 | 40 | 5 | 5 | 10 | 20 | 5 | 10 | 20 | 40 | Plant response rating, Velvetleaf ([9]; 62 g ai/ha): 75; Soybean plant response rating (soybean (Glycine max)): 10; Plant response rating, Soybean (soybean (Glycine max); 62 g ai/ha): 40; Plant response rating, Soybean (soybean (Glycine max); 125 g ai/ha): 50; Oat, Wild plant response rating (wild oat (Avena fatua)): 5; Plant response rating, Oat, Wild (wild oat (Avena fatua); 62 g ai/ha): 5; Plant response rating, Oat, Wild (wild oat (Avena fatua); 125 g ai/ha): 10; Kochia plant response rating (kochia (Kochia scoparia)): 100; Plant response rating, Kochia (kochia (Kochia scoparia); 62 g ai/ha): 100; Plant response rating, Kochia (kochia (Kochia scoparia); 125 g ai/ha): 100; Chickweed plant response rating ([10]; 16 g ai/ha): 50; Chickweed plant response rating ([10]; 31 g ai/ha): 60; Plant response rating, Chickweed ([10]; 62 g ai/ha): 60; Plant response rating, Chickweed ([10]; 125 g ai/ha): 85
